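Method: 48-hour compound exposure of cells in 96-well plates, five concentrations, linear interpolation of endpoints. GI50 = concentration required for 50% inhibition of growth.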 Calls of active or inactive are those of the source. No stated cut-off is given here; in the data, active = GI50 up to about 1.1 µM and inactive = higher.
How the values were obtained:
Assay in all cases: DTP human tumour cell line panel, 48 h
SNB-78 = system: SNB-78
KM-20L2 = system: KM-20L2
XF498 = system: XF498
M19-MEL = system: M19-MEL
DMS-114 = system: DMS-114
HOP-18 = system: HOP-18
DLD-1 = system: DLD-1
RXF 631 = system: RXF 631
LXFL 529 = system: LXFL 529

Measured: GI50

c1ccc2c(CNCCCN3CCN(CCCNCc4cccc5ccccc45)CC3)cccc2c1
inactive: SNB-78 2.21 µM | KM-20L2 1.7 µM | XF498 1.77 µM | M19-MEL 1.89 µM | DMS-114 2 µM | HOP-18 6.21 µM | DLD-1 1.75 µM | RXF 631 1.13 µM | LXFL 529 1.77 µM

COC(=O)Cc1cc(=O)[nH]c2c1C(=O)CCC2
inactive: XF498 > 100 µM | HOP-18 > 100 µM | DLD-1 > 100 µM | LXFL 529 > 100 µM

CCC(=O)c1cn(C)c(=O)c2ccccc12
inactive: SNB-78 > 100 µM | KM-20L2 > 100 µM | XF498 > 100 µM | DMS-114 > 100 µM | DLD-1 > 100 µM | RXF 631 > 100 µM | LXFL 529 > 100 µM

O=[N+]([O-])c1ccc(/C=C/c2ccc(/C=C/c3ccc([N+](=O)[O-])cc3[N+](=O)[O-])cc2)c([N+](=O)[O-])c1
inactive: SNB-78 > 100 µM | KM-20L2 > 100 µM | XF498 > 100 µM | DMS-114 > 100 µM | DLD-1 > 100 µM | LXFL 529 > 100 µM

S=c1sc2c(n1-c1ccccc1)N=CNC2S (stereo not given)
inactive: SNB-78 87.5 µM | KM-20L2 > 100 µM | XF498 > 100 µM | M19-MEL 96.4 µM | DMS-114 31.1 µM | HOP-18 28.8 µM | DLD-1 > 100 µM | LXFL 529 > 100 µM

C1CN(c2nnc(N3CCC3)nn2)C1
inactive: SNB-78 57.4 µM | KM-20L2 > 44.8 µM | XF498 22.2 µM | M19-MEL 15.1 µM | DMS-114 21.3 µM | HOP-18 > 100 µM | DLD-1 > 100 µM | RXF 631 > 10 µM | LXFL 529 21.3 µM

NC1=NC(=O)C(CC(=O)Nc2ccc([N+](=O)[O-])cc2[N+](=O)[O-])S1 (stereo not given)
inactive: SNB-78 > 100 µM | KM-20L2 > 100 µM | XF498 > 100 µM | M19-MEL > 100 µM | DMS-114 > 100 µM | HOP-18 52 µM | DLD-1 > 100 µM | RXF 631 > 100 µM | LXFL 529 > 100 µM

CSc1cnc2ccccc2c1Sc1c[nH]c2ccccc2c1=O
inactive: SNB-78 57.3 µM | KM-20L2 4.42 µM | M19-MEL 5.22 µM | DMS-114 5.7 µM | HOP-18 14.9 µM | DLD-1 11.7 µM | LXFL 529 8.67 µM

O=S(=O)(O)CS(=O)(=O)OCCCl
inactive: SNB-78 > 100 µM | KM-20L2 > 100 µM | XF498 > 100 µM | M19-MEL > 100 µM | DMS-114 > 100 µM | HOP-18 81.8 µM | DLD-1 > 100 µM | RXF 631 > 100 µM | LXFL 529 > 100 µM

COc1ccc(NC(=O)CC(=O)n2nc(-c3ccccc3)c(/N=N/c3ccccc3C(=O)O)c2-c2ccccc2)cc1
inactive: KM-20L2 > 100 µM | M19-MEL > 100 µM | DMS-114 > 100 µM | DLD-1 > 100 µM | RXF 631 > 100 µM | LXFL 529 > 100 µM

COC1/C(=C\C(C)=O)c2ccccc2N1C(C)=O (stereo not given)
inactive: KM-20L2 > 100 µM | XF498 > 100 µM | M19-MEL > 100 µM | HOP-18 > 100 µM | DLD-1 > 100 µM | RXF 631 > 100 µM | LXFL 529 > 100 µM

COc1ccc2c(c1)[n+]([O-])c(C(N)=O)c(N)[n+]2[O-]
inactive: SNB-78 > 100 µM | KM-20L2 37.2 µM | M19-MEL 73.3 µM | DMS-114 35.6 µM | HOP-18 > 100 µM | DLD-1 > 100 µM | RXF 631 34 µM | LXFL 529 66.4 µM

CC1(SCC(N)C(=O)O)CC(=O)NC1=O (stereo not given)
inactive: SNB-78 > 100 µM | KM-20L2 > 100 µM | M19-MEL > 100 µM | DMS-114 > 100 µM | LXFL 529 > 100 µM

N#Cc1c(NN)nc(NN)c(C#N)c1-c1ccccc1
inactive: SNB-78 > 100 µM | KM-20L2 > 100 µM | XF498 > 100 µM | M19-MEL > 100 µM | DMS-114 > 100 µM | HOP-18 > 100 µM | DLD-1 > 100 µM | RXF 631 > 100 µM | LXFL 529 > 100 µM

CCOC(=O)C/C(=N\c1cc(C)on1)N(CC)CC.[O-][Cl+3]([O-])([O-])O
inactive: SNB-78 > 100 µM | KM-20L2 > 100 µM | XF498 > 100 µM | M19-MEL > 100 µM | DMS-114 > 100 µM | DLD-1 > 100 µM | LXFL 529 > 100 µM

Nc1nc(SCc2ccccc2Cl)c2ncn(C3OC(CO)C(O)C3O)c2n1 (stereo not given)
inactive: KM-20L2 > 100 µM | M19-MEL > 100 µM | DMS-114 43.5 µM | HOP-18 > 100 µM | DLD-1 > 100 µM | LXFL 529 50.9 µM

CC(=O)CC(=O)CCCC(=O)Nc1ccc(Cl)cc1C
inactive: SNB-78 > 100 µM | KM-20L2 > 100 µM | M19-MEL > 100 µM | DMS-114 > 100 µM | HOP-18 > 100 µM | DLD-1 > 100 µM | RXF 631 > 100 µM | LXFL 529 > 100 µM

O=[N+]([O-])c1cc2c(cc1O)[nH]c1cccc([N+](=O)[O-])c12
inactive: SNB-78 > 100 µM | XF498 > 100 µM | M19-MEL > 100 µM | DMS-114 > 100 µM | HOP-18 33.9 µM | DLD-1 > 100 µM

CCn1c(O)c(C(=O)Nc2cccs2)c(=O)n(CC)c1=S
inactive: SNB-78 17.8 µM | KM-20L2 17.7 µM | M19-MEL 19.1 µM | DMS-114 15.4 µM | DLD-1 33.3 µM | RXF 631 19 µM | LXFL 529 14.9 µM

COc1ccc(/C(Cl)=C/c2ccc(Cl)c(Cl)c2)cc1
inactive: SNB-78 23.6 µM | KM-20L2 22.8 µM | XF498 22.4 µM | M19-MEL 30.6 µM | DMS-114 16.6 µM | HOP-18 16.5 µM | DLD-1 25.9 µM | LXFL 529 33.8 µM

COc1ccc(/C(Cl)=C(\C=O)c2cc(OC)c(OC)c(OC)c2)cc1OC
inactive: SNB-78 16.8 µM | KM-20L2 22.8 µM | M19-MEL 35.2 µM | DMS-114 12.1 µM | HOP-18 12.2 µM | RXF 631 19.7 µM | LXFL 529 11.2 µM

COc1ccc(Br)c(CCCCC(=O)O)c1
inactive: SNB-78 > 100 µM | KM-20L2 > 100 µM | XF498 > 100 µM | M19-MEL > 100 µM | DMS-114 > 100 µM | HOP-18 > 100 µM | DLD-1 > 100 µM | LXFL 529 > 100 µM
